Assay results taken from patent publication US9273057B2 (Bristol-Myers Squibb Company, priority 2012, dated 2016).
Counter-ions that a name gives are not always drawn.

Target: CK2A1 (CK2α/β) (Homo sapiens, UniProt P68400)
Assay: CK2 kinase assay, CK2A1 (CK2α/β)
Assay type: biochemical
Conditions: Table A; read-out: CK2A1 (CK2α/β) (IC50)

CK2A1 (CK2α/β), sequence (P68400 whole entry, species assumed): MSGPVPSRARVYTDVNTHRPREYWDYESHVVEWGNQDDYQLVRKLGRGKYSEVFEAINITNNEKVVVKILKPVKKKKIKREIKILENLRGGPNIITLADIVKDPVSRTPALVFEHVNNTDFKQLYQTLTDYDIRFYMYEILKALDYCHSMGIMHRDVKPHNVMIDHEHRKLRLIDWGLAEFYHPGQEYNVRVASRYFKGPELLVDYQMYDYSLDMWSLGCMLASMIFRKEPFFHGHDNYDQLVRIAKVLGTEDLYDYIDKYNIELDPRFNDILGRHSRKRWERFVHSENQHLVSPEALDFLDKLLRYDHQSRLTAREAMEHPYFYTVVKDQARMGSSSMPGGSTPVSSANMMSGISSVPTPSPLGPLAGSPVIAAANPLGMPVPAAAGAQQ
CK2A1 (CK2α/β), sequence (P67870 whole entry partner, species assumed): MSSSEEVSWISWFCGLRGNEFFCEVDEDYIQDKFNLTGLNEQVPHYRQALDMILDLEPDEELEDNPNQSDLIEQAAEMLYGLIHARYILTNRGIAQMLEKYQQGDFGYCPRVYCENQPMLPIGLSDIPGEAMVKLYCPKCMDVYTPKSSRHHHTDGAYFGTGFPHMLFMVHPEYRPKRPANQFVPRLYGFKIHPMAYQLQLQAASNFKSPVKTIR

| SMILES | IC50 [nM] |
| --- | --- |
| CCNc1nc(Nc2cc(C#N)cc(N3CC[C@@H](NC(=O)OC)[C@H](OC(=O)[C@@H](N)CCN)C3)c2Cl)nn2c(C#N)cnc12 [Example 812, (S)-(3R,4R)-1-(2-chloro-5-cyano-3-((7-cyano-4-(ethylamino)imidazo[2,1-f][1,2,4]triazin-2-yl)amino)phenyl)-4-((methoxycarbonyl)amino)piperidin-3-yl 2,4-diaminobutanoate dihydrochloride] | 4.61 |
| COC[C@H](O)CNC1CCN(c2cc(C#N)cc(Nc3nc(NC4CC4)c4ncc(C#N)n4n3)c2Cl)CC1 [Example 145, 2-((2-chloro-5-cyano-3-(4-(((2R)-2-hydroxy-3-methoxypropyl)amino)-1-piperidinyl)phenyl)amino)-4-(cyclopropylamino)imidazo [2,1-f][1,2,4]triazine-7-carbonitrile] | 5.48 |
| CCNc1nc(Nc2cc(C#N)cc(N3CC[C@@H]4[C@@H](C3)OCCN4C(=O)OC)c2Cl)nn2c(C#N)cnc12 (racemic) [Example 372, (+/−)-(4aR,8aR)-methyl 6-(2-chloro-5-cyano-3-((7-cyano-4-(ethylamino)imidazo[2,1-f][1,2,4]triazin-2-yl)amino)phenyl)octahydro-1H-pyrido[3,4-b][1,4]oxazine-1-carboxylate] | 0.94 |
| CN1CCN(Cc2cc(C#N)cc(Nc3nc(NC4CC4)c4ncc(C#N)n4n3)c2Cl)CC1 [Example 670, 2-((2-chloro-5-cyano-3-((4-methylpiperazin-1-yl)methyl)phenyl)amino)-4-(cyclopropylamino)imidazo[2,1-f][1,2,4]triazine-7-carbonitrile] | 0.76 |
| CC1(C(=O)N2CC(N3CCN(c4cc(C#N)cc(Nc5nc(NC6CC6)c6ncc(C#N)n6n5)c4Cl)CC3)C2)COC1 [Example 515, 2-[(2-chloro-5-cyano-3-{4-[1-(3-methyloxetane-3-carbonyl)azetidin-3-yl]piperazin-1-yl}phenyl)amino]-4-(cyclopropylamino)imidazo[2,1-f][1,2,4]triazine-7-carbonitrile] | 4.84 |
| N#Cc1cc(Nc2nc(NC3CC3)c3ncc(C#N)n3n2)c(Cl)c(N2CCN(CC3CCCO3)CC2)c1 (stereo not shown) [Example 531, 2-((2-chloro-5-cyano-3-(4-((tetrahydrofuran-2-yl)methyl)piperazin-1-yl)phenyl)amino)-4-(cyclopropylamino)imidazo[2,1-f][1,2,4]triazine-7-carbonitrile] | 0.44 |
| N#Cc1cc(Nc2nc(NC3CC3)c3ncc(C#N)n3n2)c(Cl)c(N2CCC(NCC(O)C(F)(F)F)CC2)c1 (racemic) [Example 139, (+/−) 2-((2-chloro-5-cyano-3-(4-((3,3,3-trifluoro-2-hydroxypropyl)amino)-1-piperidinyl)phenyl)amino)-4-(cyclopropylamino)imidazo [2,1-f][1,2,4]triazine-7-carbonitrile] | 0.45 |
| CCNc1nc(Nc2cc(C#N)cc(C3CCN(C4COC4)CC3)c2Cl)nn2c(C#N)cnc12 [Example 349, 2-((2-chloro-5-cyano-3-(1-(oxetan-3-yl)piperidin-4-yl)phenyl)amino)-4-(ethylamino)imidazo[2,1-f][1,2,4]triazine-7-carbonitrile] | 2.75 |
| C[N+]1(C)CCN(C2CN(c3cc(C#N)cc(Nc4nc(NC5CC5)c5ncc(C#N)n5n4)c3Cl)C2)CC1 [Example 170, 4-(1-(2-chloro-5-cyano-3-((7-cyano-4-(cyclopropylamino)imidazo [2,1-f][1,2,4]triazin-2-yl)amino)phenyl)-3-azetidinyl)-1,1-dimethylpiperazin-1-ium] | 0.93 |
| CC1(O)CN(C2CCN(c3cc(C#N)cc(Nc4nc(NC5CC5)c5ncc(C#N)n5n4)c3Cl)CC2)C1 [Example 111, 2-(2-chloro-5-cyano-3-(4-(3-hydroxy-3-methylazetidin-1-yl)piperidin-1-yl)phenylamino)-4-(cyclopropylamino)imidazo [1,2-f][1,2,4]triazine-7-carbonitrile] | 0.68 |

Results, then the compound that gave them:

| IC50 [nM] | SMILES |
| --- | --- |
| 0.94 | COC(=O)N[C@@H]1CCCN(c2cc(C#N)cc(Nc3nc(NC4CC4)c4ncc(C#N)n4n3)c2Cl)C1 [Example 41, methyl ((3R)-1-(2-chloro-5-cyano-3-((7-cyano-4-(cyclopropylamino)imidazo [2,1-f][1,2,4]triazin-2-yl)amino)phenyl)-3-piperidinyl)carbamate] |
| 2.9 | CS(=O)(=O)CC(=O)N1CCN(c2cc(C#N)cc(Nc3nc(NC4CC4)c4ncc(C#N)n4n3)c2Cl)CC1 [Example 89, 2-((2-chloro-5-cyano-3-(4-((methylsulfonyl)acetyl)-1-piperazinyl)phenyl)amino)-4-(cyclopropylamino) imidazo[2,1-f][1,2,4] triazine-7-carbonitrile] |
| 0.92 | N#Cc1cc(Nc2nc(NC3CC3)c3ncc(C#N)n3n2)c(Cl)c(N2CCN(C(=O)CC3CCOCC3)CC2)c1 [Example 95, 2-((2-chloro-5-cyano-3-(4-(tetrahydro-2H-pyran-4-ylacetyl)-1-piperazinyl)phenyl)amino)-4-(cyclopropylamino) imidazo[2,1-f][1,2,4] triazine-7-carbonitrile] |
| 2.32 | CCNc1nc(Nc2cc(C#N)cc(N3CC[C@H](NC(=O)OC)[C@H](F)C3)c2Cl)nn2c(C#N)cnc12 [Example 331, methyl ((3R,4S)-1-(2-chloro-5-cyano-3-((7-cyano-4-(ethylamino)imidazo[2,1-f][1,2,4]triazin-2-yl)amino)phenyl)-3-fluoro-4-piperidinyl)carbamate] |
| 0.89 | N#Cc1cc(Nc2nc(NC3CC3)c3ncc(C#N)n3n2)c(Cl)c(N2CCOC(CN3CC(F)C3)C2)c1 (stereo not shown) [Example 705, 2-[(2-chloro-5-cyano-3-{2-[(3-fluoroazetidin-1-yl)methyl]morpholin-4-yl}phenyl)amino]-4-(cyclopropylamino)imidazo[2,1-f][1,2,4]triazine-7-carbonitrile] |
| 0.44 | CCNc1nc(Nc2cc(C#N)cc(N3CC[C@@H](NC(=O)OC)[C@H](OC(=O)[C@@H](N)CCCNC(=N)N)C3)c2Cl)nn2c(C#N)cnc12 [Example 808, (S)-(3R,4R)-1-(2-chloro-5-cyano-3-((7-cyano-4-(ethylamino)imidazo[2,1-f][1,2,4]triazin-2-yl)amino)phenyl)-4-((methoxycarbonyl)amino)piperidin-3-yl 2-amino-5-guanidinopentanoate trihydrochloride] |
| 0.55 | C[C@@H]1OCC[C@@H]1NC1CCN(c2cc(C#N)cc(Nc3nc(NC4CC4)c4ncc(C#N)n4n3)c2Cl)CC1 (racemic) [Example 123, (+/−) 2-((2-chloro-5-cyano-3-(4-(((2S,3S)-2-methyltetrahydro-3-furanyl)amino)-1-piperidinyl)phenyl)amino)-4-(cyclopropylamino)imidazo [2,1-f][1,2,4]triazine-7-carbonitrile] |
| 3.27 | N#Cc1cnc2c(NC3CC3)nc(Nc3cc(C(F)F)cc(N4CCN(CC(F)F)CC4)c3Cl)nn12 [Example 248, 2-((2-chloro-3-(4-(2,2-difluoroethyl)-1-piperazinyl)-5-(difluoromethyl)phenyl)amino)-4-(cyclopropylamino)imidazo[2,1-f][1,2,4]triazine-7-carbonitrile] |
| 0.46 | CCNc1nc(Nc2cc(C#N)cc(N3C[C@H](NC(=O)OC)[C@@H](OC)C3)c2Cl)nn2c(C#N)cnc12 [Example 333, methyl ((3S,4S)-1-(2-chloro-5-cyano-3-((7-cyano-4-(ethylamino)imidazo [2,1-f][1,2,4]triazin-2-yl)amino)phenyl)-4-methoxy-3-pyrrolidinyl)carbamate] |
